Source: patent publication US20090246290A1, “Lipid metabolism improving agent containing hydrogen molecules” (priority 2006, published 2009)

Key:
[1] = hydrogen pressure of 1 atmosphere, room temperature; cited from earlier work
[2] = tested on: apoE knockout mice (apoE-KO mice); conditions: inhalation of gas mixture with approximately 2% hydrogen gas
Source text: (§1) The size of this container was as follows: W: 550 mm; L: 400 mm; and H: 300 mm.
(§2) Then, effects on body fat and the liver were examined. 9-week-old male apoE-KO mice were placed in cages (4 mice each). One group was designated as a control group and normal air was supplied thereto.

[3] = tested on: apoE knockout mice (apoE-KO mice); conditions: 11 weeks after hydrogen administration, approximately 2% hydrogen gas inhalation
Source text: as §1, §2
11 weeks after hydrogen administration, the mice were subjected to measurement of muscle force. Upon measurement, each mouse was allowed to hold a mesh wire of the ceiling and the time period until it fell from the ceiling was determined.

[4] = tested on: apoE knockout mice (apoE-KO mice); conditions: approximately 2% hydrogen gas inhalation, vs control group
Protocol: as §1, §2
Next, each mouse was analyzed with an X-ray CT for laboratory animals (LaTheta LCT-100A, Aloka Co., Ltd.). General anesthesia induction was carried out by supplying an anesthetic gas mixture (oxygen: 0.3 L/min; nitrous-oxide gas: 0.7 L/min; Sevofrane: 3% (Maruishi Pharmaceutical Co., Ltd.)) to each mouse with the use of a general anesthesia apparatus for small animals (Soft Lander, NeuroScience, Inc). CT scanning was carried out under anesthesia so as to obtain whole-body images (FIG. 9, upper images). Then, fat regions were determined based on CT values so as to specify subcutaneous fat and visceral fat (FIG. 9, lower images). Each cross-sectional area was multiplied by the thickness so as to obtain the volume, followed by estimation of the fat and muscle weights. […] In addition, fat percentages were obtained by the following equation.
Fat percentage (%)=fat [visceral fat+subcutaneous fat]/(fat [visceral fat+subcutaneous fat]+muscle)×100

[5] = tested on: apoE knockout mice (apoE-KO mice); experiment: Serum items, organ weights and fat accumulated in the liver 12 weeks after hydrogen gas inhalation; type: in vivo, mouse; conditions: 12 weeks hydrogen gas inhalation, vs control group
Protocol: The amounts of the following items in serum were measured: total cholesterol, LDL cholesterol, HDL cholesterol, neutral fat, AST, ALT, creatinine kinase, total protein, lactate dehydrogenase, urea nitrogen, total bilirubin, creatinine, alkaline phosphatase, choline esterase, and albumine. […] Each liver was fixed with 4% paraformaldehyde overnight, followed by dehydration with sucrose. Thereafter, frozen sections were prepared and stained with Oil-Red O. Then, the amount of lipids accumulated in the liver was calculated (FIG. 13A, images). The stained portions indicate fat accumulation.

## [HH] [hydrogen gas]
[1]
  hydrogen dissolved in 1 L of water: approximately 17.5 mL
[2]
  weight increases vs control group: significantly suppressed
[3]
  muscle force: time period until mouse fell from mesh wire of the ceiling: significantly long time
[4]
  amount of subcutaneous fat (CT): significantly decreased
  amount of total fat (CT): significantly decreased
  amount of visceral fat (CT): significantly decreased
  fat percentage (fat/(fat+muscle) x100, CT): more significantly decreased
[5]
  kidney weight: significantly decreased
  liver weight: significantly decreased
  serum ALT: no difference was observed
  serum AST: no difference was observed
  serum HDL cholesterol: no difference was observed
  serum LDL cholesterol: no difference was observed
  serum albumine: no difference was observed
  serum alkaline phosphatase: no difference was observed
  serum choline esterase: no difference was observed
  serum creatinine: no difference was observed
  serum creatinine kinase: no difference was observed
  serum lactate dehydrogenase: no difference was observed
  serum neutral fat: no difference was observed
  serum total bilirubin: no difference was observed
  serum total cholesterol: no difference was observed
  serum total protein: no difference was observed
  serum urea nitrogen: no difference was observed
